We go through 8 compounds from patent US9879043B1, “Synthesis of non-natural cofactor analogs of S-adenosyl-L-methionine using methionine adenosyltransferase” (University of Kentucky Research Foundation, priority 2013, dated 2018).

Molecules are shown by their SMILES.

One experiment addresses human MAT II catalytic alpha and regulatory beta subunit (hMAT2) (Homo sapiens, UniProt P31153). In words: MAT assay, turnover of S/Se-Met analogs to S(Se)AM analogs (RP-HPLC end point). It counts as biochemical. Particulars: 2 mM Met analog, 1 mM ATP, 5 μM MAT, pH 8, 4 h, 37° C.; average of two assays. The procedure:
(§1) Standard uniform assay conditions (2 mM Met analog, 1 mM ATP, 5 μM MAT, 25 mM Tris, 5 mM MgCl2, 50 mM KCl, pH 8, 4 h) were adopted to facilitate this broad assessment. For the thermophilic counterpart (mMAT), reactions were conducted at 65° C., while all other reactions were incubated at 37° C. Production of SAM analogs was determined by an RP-HPLC end point assay to afford complete analysis of the desired SAM analog and/or any corresponding degradation products known to directly derive from the desired SAM analog intermediate.
(§2) To monitor MAT reactions, analytical RP HPLC employed a Luna C18 column (5 μm, 4.6 mm×250 mm; Phenomenex, Torrance, Calif., USA) [gradient of 10% B to 40% B over 15 min, 40% B to 75% B over 5 min (A=10 mM NaH2PO4, 5 mM octane sulfonic acid, pH was adjusted to 3.5 using phosphoric acid; B=acetonitrile) flow rate=1 mL min^−1; A254].
(§3) The sMAT and mMAT reactions were conducted at 65° C. while hMATs and eMAT were incubated at 37° C. Reactions were quenched by adding an equal volume of methanol followed by centrifugation (10,000×g for 15 min) to remove the precipitated protein and product formation for each reaction was subsequently analyzed by RP-HPLC using Method D (FIG. 15, first column). For each reaction, percent yield was based upon the integration of species at 254 nm and calculated by dividing the integrated area of product and/or decomposed product by the sum of integrated area of product and/or decomposed product and the remaining substrate. The assays were repeated twice under identical conditions, and Table 2 (and FIG. 5) represents an average value of two assays. The inclusion of adenine and 5′-R-thio-5′-adenosine in these calculations is based upon the established SAM and ATP chemical decomposition pathways which indicate adenine and 5′-R-thio-5′-adenosine to only derive from SAM (not ATP). All putative products were subsequently confirmed by high resolution electrospray ionization (ESI) mass spectra with positive (+) and/or negative (−) mode.
Turning to `C#CCC[Se]CC[C@H](N)C(=O)O` [compound 10-Se, (2S)-2-amino-4-(but-3-yn-1-ylselanyl)butanoic acid], the “Percentage Turn-over hMAT2” value amounted to 55%.

Take `C=CC[Se]CC[C@H](N)C(=O)O` [compound 7-Se, (2S)-2-amino-4-(prop-2-en-1-ylselanyl)butanoic acid]: the “Percentage Turn-over hMAT2” value is recorded as 59%.

In the case of `CC(C)[Se]CC[C@H](N)C(=O)O` [compound 9-Se, (2S)-2-amino-4-(propan-2-ylselanyl)butanoic acid], the “Percentage Turn-over hMAT2” value came to 10%.

`[N-]=[N+]=NC/C=C/C[Se]CC[C@H](N)C(=O)O` [compound 23-Se, (2S)-2-amino-4-{[(2E)-4-azidobut-2-en-1-yl]selanyl}butanoic acid]: the “Percentage Turn-over hMAT2” value was determined as 15%.

In the case of `CC(C)=CC[Se]CC[C@H](N)C(=O)O` [compound 19-Se, (2S)-2-amino-4-[(3-methylbut-2-en-1-yl)selanyl]butanoic acid], the “Percentage Turn-over hMAT2” value was found to be 15%.

Consider `C=C(C)C[Se]CC[C@H](N)C(=O)O` [compound 12-Se, (2S)-2-amino-4-[(2-methylprop-2-en-1-yl)selanyl]butanoic acid], for which the “Percentage Turn-over hMAT2” value is given as 12%.

In the case of `N#CC[Se]CC[C@H](N)C(=O)O` [compound 6-Se, (2S)-2-amino-4-[(cyanomethyl)selanyl]butanoic acid], the “Percentage Turn-over hMAT2” value worked out at 33%.

As to `C#CC[Se]CC[C@H](N)C(=O)O` [compound 4-Se, (2S)-2-amino-4-(prop-2-yn-1-ylselanyl)butanoic acid], the “Percentage Turn-over hMAT2” value was 58%.

The target of another experiment is human MAT II catalytic alpha subunit alone (hMAT2A) (Homo sapiens, UniProt P31153). Described as above. Type of experiment: biochemical. The following applies: 2 mM Met analog, 1 mM ATP, 5 μM MAT, pH 8, 4 h, 37° C.; average of two assays. The procedure:
as §1, §2, §3
On to `C#CCC[Se]CC[C@H](N)C(=O)O` [compound 10-Se, (2S)-2-amino-4-(but-3-yn-1-ylselanyl)butanoic acid], for which the “Percentage Turn-over hMAT2A” value turned out to be 22%.

For the compound `C=CC[Se]CC[C@H](N)C(=O)O` [compound 7-Se, (2S)-2-amino-4-(prop-2-en-1-ylselanyl)butanoic acid], the “Percentage Turn-over hMAT2A” value came out at 42%.

As to `CC(C)[Se]CC[C@H](N)C(=O)O` [compound 9-Se, (2S)-2-amino-4-(propan-2-ylselanyl)butanoic acid], the “Percentage Turn-over hMAT2A” value is 11%.

On to `[N-]=[N+]=NC/C=C/C[Se]CC[C@H](N)C(=O)O` [compound 23-Se, (2S)-2-amino-4-{[(2E)-4-azidobut-2-en-1-yl]selanyl}butanoic acid], for which the “Percentage Turn-over hMAT2A” value stood at 9%.

As for `CC(C)=CC[Se]CC[C@H](N)C(=O)O` [compound 19-Se, (2S)-2-amino-4-[(3-methylbut-2-en-1-yl)selanyl]butanoic acid], the “Percentage Turn-over hMAT2A” value worked out at 9%.

In the case of `C=C(C)C[Se]CC[C@H](N)C(=O)O` [compound 12-Se, (2S)-2-amino-4-[(2-methylprop-2-en-1-yl)selanyl]butanoic acid], the “Percentage Turn-over hMAT2A” value came out at 11%.

As to `N#CC[Se]CC[C@H](N)C(=O)O` [compound 6-Se, (2S)-2-amino-4-[(cyanomethyl)selanyl]butanoic acid], the “Percentage Turn-over hMAT2A” value was found to be 23%.

Take `C#CC[Se]CC[C@H](N)C(=O)O` [compound 4-Se, (2S)-2-amino-4-(prop-2-yn-1-ylselanyl)butanoic acid]: the “Percentage Turn-over hMAT2A” value amounted to 44%.
